Test results taken from the supplement of paper PMC10307832.

Legend:
Assay in all cases: relative viability (nuclei count vs DMSO), 5 days (fraction); higher = more cells survive
[1] = system: NCI-H1975
Summary of the method: (§1)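 Nuclei were stained with Hoechst during a one-step fixation (final 0.05% Triton X-100, 1% formaldehyde, 1 ug/ml Hoechst) carried out 5 days after dosing, then counted on 4× images. The cells, lung cancer lines in 1536-well plates, had been dosed by pin tool the day after seeding with one drug alone or a fixed anchor-drug dose plus five library-drug doses (not always all listed) in √10 steps. Relative viability is the nuclei count in treated wells divided by that in vehicle wells, and each value is the median of duplicate plates.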

[2] = system: NCI-H1944
Summary of the method: as §1

[3] = system: NCI-H650
Summary of the method: as §1

[4] = system: NCI-H2087
Summary of the method: as §1

[5] = system: HCC-78
Summary of the method: as §1

[6] = system: NCI-H838
Summary of the method: as §1

[7] = system: SK-MES-1
Summary of the method: as §1

[8] = system: LC-2-ad
Summary of the method: as §1

[9] = system: PC-3 [JPC-3]
Summary of the method: as §1

[10] = system: NCI-H1651
Summary of the method: as §1

[11] = system: BEN
Summary of the method: as §1

[12] = system: LXF-289
Summary of the method: as §1

[13] = system: LCLC-97TM1
Summary of the method: as §1

[14] = system: NCI-H661
Summary of the method: as §1

[15] = system: NCI-H1666
Summary of the method: as §1

[16] = system: NCI-H358
Summary of the method: as §1

[17] = system: NCI-H596
Summary of the method: as §1

[18] = system: LK-2
Summary of the method: as §1

[19] = system: NCI-H1355
Summary of the method: as §1

[20] = system: LU99A
Summary of the method: as §1

Nc1ccn([C@@H]2O[C@H](CO)[C@@H](O)[C@@H]2O)c(=O)n1 [Cytarabine] + CS(=O)(=O)CCNCc1ccc(-c2ccc3ncnc(Nc4ccc(OCc5cccc(F)c5)c(Cl)c4)c3c2)o1 [Lapatinib] (partner 2 µM)
relative viability ([1]; first compound 0.005 µM): 0.644 | relative viability ([1]; first compound 0.01581 µM): 1.05 | relative viability ([1]; first compound 0.05 µM): 1.09 | relative viability ([1]; first compound 0.1581 µM): 0.456 | relative viability ([1]; first compound 0.5 µM): 0.372 | relative viability ([2]; first compound 0.005 µM): 0.603 | relative viability ([2]; first compound 0.01581 µM): 0.336 | relative viability ([2]; first compound 0.05 µM): 0.318 | relative viability ([2]; first compound 0.1581 µM): 0.177 | relative viability ([2]; first compound 0.5 µM): 0.153 | relative viability ([3]; first compound 0.005 µM): 0.735 | relative viability ([3]; first compound 0.01581 µM): 0.535 | relative viability ([3]; first compound 0.05 µM): 0.363 | relative viability ([3]; first compound 0.1581 µM): 0.202 | relative viability ([3]; first compound 0.5 µM): 0.195 | relative viability ([4]; first compound 0.005 µM): 1.04 | relative viability ([4]; first compound 0.01581 µM): 0.967 | relative viability ([4]; first compound 0.05 µM): 0.894 | relative viability ([4]; first compound 0.1581 µM): 0.678 | relative viability ([4]; first compound 0.5 µM): 0.402 | relative viability ([5]; first compound 0.005 µM): 0.799 | relative viability ([5]; first compound 0.01581 µM): 0.595 | relative viability ([5]; first compound 0.05 µM): 0.353 | relative viability ([5]; first compound 0.1581 µM): 0.308 | relative viability ([5]; first compound 0.5 µM): 0.19 | relative viability ([6]; first compound 0.005 µM): 0.926 | relative viability ([6]; first compound 0.01581 µM): 0.937 | relative viability ([6]; first compound 0.05 µM): 0.767 | relative viability ([6]; first compound 0.1581 µM): 0.288 | relative viability ([6]; first compound 0.5 µM): 0.213 | relative viability ([7]; first compound 0.005 µM): 0.416 | relative viability ([7]; first compound 0.01581 µM): 0.396 | relative viability ([7]; first compound 0.05 µM): 0.328 | relative viability ([7]; first compound 0.1581 µM): 0.228 | relative viability ([7]; first compound 0.5 µM): 0.196 | relative viability ([8]; first compound 0.005 µM): 0.878 | relative viability ([8]; first compound 0.01581 µM): 0.868 | relative viability ([8]; first compound 0.05 µM): 0.926 | relative viability ([8]; first compound 0.1581 µM): 0.26 | relative viability ([8]; first compound 0.5 µM): 0.192 | relative viability ([9]; first compound 0.005 µM): 0.435 | relative viability ([9]; first compound 0.01581 µM): 0.465 | relative viability ([9]; first compound 0.05 µM): 0.426 | relative viability ([9]; first compound 0.1581 µM): 0.396 | relative viability ([9]; first compound 0.5 µM): 0.389 | relative viability ([10]; first compound 0.005 µM): 0.801 | relative viability ([10]; first compound 0.01581 µM): 0.845 | relative viability ([10]; first compound 0.05 µM): 1.02 | relative viability ([10]; first compound 0.1581 µM): 0.421 | relative viability ([10]; first compound 0.5 µM): 0.288 | relative viability ([11]; first compound 0.005 µM): 0.606 | relative viability ([11]; first compound 0.01581 µM): 0.549 | relative viability ([11]; first compound 0.05 µM): 0.414 | relative viability ([11]; first compound 0.1581 µM): 0.333 | relative viability ([11]; first compound 0.5 µM): 0.256 | relative viability ([12]; first compound 0.005 µM): 0.806 | relative viability ([12]; first compound 0.01581 µM): 0.851 | relative viability ([12]; first compound 0.05 µM): 0.809 | relative viability ([12]; first compound 0.1581 µM): 0.429 | relative viability ([12]; first compound 0.5 µM): 0.339 | relative viability ([13]; first compound 0.005 µM): 1.06 | relative viability ([13]; first compound 0.01581 µM): 0.495 | relative viability ([13]; first compound 0.05 µM): 0.163 | relative viability ([13]; first compound 0.1581 µM): 0.161 | relative viability ([13]; first compound 0.5 µM): 0.0949 | relative viability ([14]; first compound 0.005 µM): 0.544 | relative viability ([14]; first compound 0.01581 µM): 0.465 | relative viability ([14]; first compound 0.05 µM): 0.49 | relative viability ([14]; first compound 0.1581 µM): 0.278 | relative viability ([14]; first compound 0.5 µM): 0.233 | relative viability ([15]; first compound 0.005 µM): 0.455 | relative viability ([15]; first compound 0.01581 µM): 0.549 | relative viability ([15]; first compound 0.05 µM): 0.378 | relative viability ([15]; first compound 0.1581 µM): 0.308 | relative viability ([15]; first compound 0.5 µM): 0.262 | relative viability ([16]; first compound 0.005 µM): 0.471 | relative viability ([16]; first compound 0.01581 µM): 0.332 | relative viability ([16]; first compound 0.05 µM): 0.364 | relative viability ([16]; first compound 0.1581 µM): 0.199 | relative viability ([16]; first compound 0.5 µM): 0.176 | relative viability ([17]; first compound 0.005 µM): 1.03 | relative viability ([17]; first compound 0.01581 µM): 0.903 | relative viability ([17]; first compound 0.05 µM): 0.785 | relative viability ([17]; first compound 0.1581 µM): 0.746 | relative viability ([17]; first compound 0.5 µM): 0.609 | relative viability ([18]; first compound 0.005 µM): 0.627 | relative viability ([18]; first compound 0.01581 µM): 0.479 | relative viability ([18]; first compound 0.05 µM): 0.395 | relative viability ([18]; first compound 0.1581 µM): 0.248 | relative viability ([18]; first compound 0.5 µM): 0.283 | relative viability ([19]; first compound 0.005 µM): 0.884 | relative viability ([19]; first compound 0.01581 µM): 0.968 | relative viability ([19]; first compound 0.05 µM): 0.811 | relative viability ([19]; first compound 0.1581 µM): 0.66 | relative viability ([19]; first compound 0.5 µM): 0.322 | relative viability ([20]; first compound 0.005 µM): 0.974 | relative viability ([20]; first compound 0.01581 µM): 0.968 | relative viability ([20]; first compound 0.05 µM): 1.02 | relative viability ([20]; first compound 0.1581 µM): 0.988 | relative viability ([20]; first compound 0.5 µM): 0.938
